Reference: patent US20230271950A1, “ANTIBACTERIAL PICOLINAMIDE COMPOUNDS” (University of Notre Dame Du Lac, priority 2020, published 2023)
Values after ≈ are worked out from the molar mass of the structure shown. Read-outs that look alike come from different tables or passages of the source.

Tested on: C. difficile
Assay: MIC by broth microdilution against C. difficile strains
Assay type: cell-based, Clostridioides difficile

## CCc1c(Cl)c(O)c(Cl)c(O)c1C(=O)O[C@H]1[C@H](O)[C@H](OC)[C@H](OC/C2=C\C=C\C[C@H](O)/C(C)=C/[C@H](CC)[C@@H](O[C@@H]3OC(C)(C)[C@@H](OC(=O)C(C)C)[C@H](O)[C@@H]3O)/C(C)=C/C(C)=C/C[C@@H]([C@@H](C)O)OC2=O)O[C@@H]1C [FDX, fidaxomicin, reference compound]
C. difficile ATCC43255 relative to MRSA NRS70
  selectivity toward C. difficile relative to MRSA: 128 fold
C. difficile BAA-1801, Table 9
  MIC: 0.125 µg/mL (≈ 0.118 µM)
C. difficile HM-745, Table 9
  MIC: 0.125 µg/mL (≈ 0.118 µM)
C. difficile NR49318, Table 9
  MIC: 0.125 µg/mL (≈ 0.118 µM)
C. difficile NR-13431, Table 9
  MIC: 0.125 µg/mL (≈ 0.118 µM)
C. difficile NR-13433, Table 9
  MIC: 0.125 µg/mL (≈ 0.118 µM)
C. difficile NR-13436, Table 9
  MIC: 0.125 µg/mL (≈ 0.118 µM)
C. difficile NR-32883, Table 9
  MIC: 0.125 µg/mL (≈ 0.118 µM)
C. difficile NR-32887, Table 9
  MIC: 0.125 µg/mL (≈ 0.118 µM)
C. difficile NR-49280, Table 9
  MIC: 0.125 µg/mL (≈ 0.118 µM)
C. difficile NR-49298, Table 9
  MIC: 0.125 µg/mL (≈ 0.118 µM)
C. difficile NR-49299, Table 9
  MIC: 0.125 µg/mL (≈ 0.118 µM)
C. difficile NR-49308, Table 9
  MIC: 0.125 µg/mL (≈ 0.118 µM)
C. difficile NR-49312, Table 9
  MIC: 0.125 µg/mL (≈ 0.118 µM)
C. difficile NR-49316, Table 9
  MIC: 0.125 µg/mL (≈ 0.118 µM)
C. difficile NR-49319, Table 9
  MIC: 0.125 µg/mL (≈ 0.118 µM)
C. difficile NR-49320, Table 9
  MIC: 0.125 µg/mL (≈ 0.118 µM)
C. difficile NR-49321, Table 9
  MIC: 0.125 µg/mL (≈ 0.118 µM)
Clostridioides difficile
  MIC: 0.125 µg/mL (≈ 0.118 µM)
Clostridioides difficile, ATCC43255, C. difficile ATCC43255 (TcdA+, TcdB+), Table 1, read-out: MIC
  MIC: 0.06 µg/mL (≈ 0.0567 µM)
Clostridioides difficile, ATCC43255, C. difficile ATCC43255, Table 7, read-out: MIC
  MIC: 0.0625 µg/mL (≈ 0.0591 µM)
Clostridioides difficile, ATCC43255, C. difficile ATCC43255, Table 9, read-out: MIC
  MIC: 0.06 µg/mL (≈ 0.0567 µM)
Clostridioides difficile, ATCC43598, C. difficile ATCC43598, Table 7, read-out: MIC
  MIC: 0.01 µg/mL (≈ 0.00945 µM)
Clostridioides difficile, ATCC43598, C. difficile ATCC43598, Table 9, read-out: MIC
  MIC: 0.01 µg/mL (≈ 0.00945 µM)
Clostridioides difficile, BAA1801
  MIC: 0.125 µg/mL (≈ 0.118 µM)
Clostridioides difficile, BAA1803, C. difficile BAA-1803, Table 7, read-out: MIC
  MIC: 1 µg/mL (≈ 0.945 µM)
Clostridioides difficile, BAA1803, C. difficile BAA-1803, Table 9, read-out: MIC
  MIC: 1 µg/mL (≈ 0.945 µM)
Clostridioides difficile, BAA1804
  MIC: 0.125 µg/mL (≈ 0.118 µM)
Clostridioides difficile, BAA1804, C. difficile BAA-1804, Table 7, read-out: MIC
  MIC: < 0.25 µg/mL
Clostridioides difficile, BAA1812, C. difficile BAA-1812, Table 7, read-out: MIC
  MIC: 0.015 µg/mL (≈ 0.0142 µM)
Clostridioides difficile, BAA1812, C. difficile BAA-1812, Table 9, read-out: MIC
  MIC: 0.015 µg/mL (≈ 0.0142 µM)
Clostridioides difficile, BAA1814, C. difficile BAA-1814, Table 7, read-out: MIC
  MIC: 0.03 µg/mL (≈ 0.0284 µM)
Clostridioides difficile, BAA1814, C. difficile BAA-1814, Table 9, read-out: MIC
  MIC: 0.03 µg/mL (≈ 0.0284 µM)
Clostridioides difficile, BAA1870, C. difficile BAA-1870 (NAP1, ribotype 27), Table 1, read-out: MIC
  MIC: 0.25 µg/mL (≈ 0.236 µM)
Clostridioides difficile, BAA1870, C. difficile BAA-1870, Table 7, read-out: MIC
  MIC: 0.25 µg/mL (≈ 0.236 µM)
Clostridioides difficile, BAA1870, C. difficile BAA-1870, Table 9, read-out: MIC
  MIC: 0.25 µg/mL (≈ 0.236 µM)
Clostridioides difficile, C. difficile 23691 (VR, vancomycin-resistant), Table 7, read-out: MIC
  MIC: 4 µg/mL (≈ 3.78 µM)
Clostridioides difficile, C. difficile 23691, clinical isolate resistant to VAN, Table 1, read-out: MIC
  MIC: 4 µg/mL (≈ 3.78 µM)
Clostridioides difficile, C. difficile 23691, Table 9, read-out: MIC
  MIC: 4 µg/mL (≈ 3.78 µM)
Clostridioides difficile, C. difficile 23828 (FR, fidaxomicin-resistant), Table 7, read-out: MIC
  MIC: > 8 µg/mL
Clostridioides difficile, C. difficile 23828, clinical isolate resistant to FDX, Table 1, read-out: MIC
  MIC: > 8 µg/mL
Clostridioides difficile, C. difficile 23828, Table 9, read-out: MIC
  MIC: > 8 µg/mL
Clostridioides difficile, C. difficile 24531 (VR, vancomycin-resistant), Table 7, read-out: MIC
  MIC: 0.01 µg/mL (≈ 0.00945 µM)
Clostridioides difficile, C. difficile 24531, Table 9, read-out: MIC
  MIC: 0.01 µg/mL (≈ 0.00945 µM)
Clostridioides difficile, C. difficile 24923 (VR, vancomycin-resistant), Table 7, read-out: MIC
  MIC: 0.0625 µg/mL (≈ 0.0591 µM)
Clostridioides difficile, C. difficile 24923, Table 9, read-out: MIC
  MIC: 0.06 µg/mL (≈ 0.0567 µM)
Clostridioides difficile, C. difficile 26675 (MR, metronidazole-resistant), Table 7, read-out: MIC
  MIC: 4 µg/mL (≈ 3.78 µM)
Clostridioides difficile, C. difficile 26675, clinical isolate resistant to MTZ, Table 1, read-out: MIC
  MIC: 4 µg/mL (≈ 3.78 µM)
Clostridioides difficile, C. difficile 26675, Table 9, read-out: MIC
  MIC: 4 µg/mL (≈ 3.78 µM)
Clostridioides difficile, C. difficile 27081 (FR, fidaxomicin-resistant), Table 7, read-out: MIC
  MIC: > 8 µg/mL
Clostridioides difficile, C. difficile 27081, Table 9, read-out: MIC
  MIC: > 8 µg/mL
Clostridioides difficile, C. difficile 27173 (MR, metronidazole-resistant), Table 7, read-out: MIC
  MIC: 0.01 µg/mL (≈ 0.00945 µM)
Clostridioides difficile, C. difficile 27173, Table 9, read-out: MIC
  MIC: 0.01 µg/mL (≈ 0.00945 µM)
Clostridioides difficile, C. difficile HM-88, Table 9, read-out: MIC
  MIC: 0.03 µg/mL (≈ 0.0284 µM)
Clostridioides difficile, C. difficile HM-89, Table 9, read-out: MIC
  MIC: 0.03 µg/mL (≈ 0.0284 µM)
Clostridioides difficile, C. difficile HM-746, Table 9, read-out: MIC
  MIC: ≤ 0.03 µg/mL
Clostridioides difficile, C. difficile HM-747, Table 9, read-out: MIC
  MIC: 0.06 µg/mL (≈ 0.0567 µM)
Clostridioides difficile, C. difficile NR49292, Table 7, read-out: MIC
  MIC: 0.5 µg/mL (≈ 0.473 µM)
Clostridioides difficile, C. difficile NR49292, Table 9, read-out: MIC
  MIC: 0.5 µg/mL (≈ 0.473 µM)
Clostridioides difficile, C. difficile NR49294, Table 7, read-out: MIC
  MIC: 0.01 µg/mL (≈ 0.00945 µM)
Clostridioides difficile, C. difficile NR49294, Table 9, read-out: MIC
  MIC: 0.01 µg/mL (≈ 0.00945 µM)
Clostridioides difficile, C. difficile NR49302, Table 7, read-out: MIC
  MIC: 0.03 µg/mL (≈ 0.0284 µM)
Clostridioides difficile, C. difficile NR49302, Table 9, read-out: MIC
  MIC: 0.03 µg/mL (≈ 0.0284 µM)
Clostridioides difficile, C. difficile NR49305, Table 7, read-out: MIC
  MIC: 0.01 µg/mL (≈ 0.00945 µM)
Clostridioides difficile, C. difficile NR49305, Table 9, read-out: MIC
  MIC: 0.01 µg/mL (≈ 0.00945 µM)
Clostridioides difficile, C. difficile NR49310, Table 7, read-out: MIC
  MIC: ≤ 0.01 µg/mL
Clostridioides difficile, C. difficile NR49310, Table 9, read-out: MIC
  MIC: ≤ 0.01 µg/mL
Clostridioides difficile, C. difficile NR-13427, Table 9, read-out: MIC
  MIC: 0.03 µg/mL (≈ 0.0284 µM)
Clostridioides difficile, C. difficile NR-13428, Table 9, read-out: MIC
  MIC: ≤ 0.03 µg/mL
Clostridioides difficile, C. difficile NR-13429, Table 9, read-out: MIC
  MIC: 0.25 µg/mL (≈ 0.236 µM)
Clostridioides difficile, C. difficile NR-13430, Table 9, read-out: MIC
  MIC: ≤ 0.03 µg/mL
Clostridioides difficile, C. difficile NR-13434, Table 9, read-out: MIC
  MIC: 0.06 µg/mL (≈ 0.0567 µM)
Clostridioides difficile, C. difficile NR-13435, Table 9, read-out: MIC
  MIC: ≤ 0.03 µg/mL
Clostridioides difficile, C. difficile NR-13437, Table 9, read-out: MIC
  MIC: 0.25 µg/mL (≈ 0.236 µM)
Clostridioides difficile, C. difficile NR-13438, Table 9, read-out: MIC
  MIC: 0.06 µg/mL (≈ 0.0567 µM)
Clostridioides difficile, C. difficile NR-13553, Table 9, read-out: MIC
  MIC: ≤ 0.03 µg/mL
